The Ki is the dissociation constant of the complex between target and ligand, obtained from inhibition or displacement.

This is an account of results in ChEMBL document CHEMBL2203055, “From α4β2 Nicotinic Ligands to the Discovery of σ1 Receptor Ligands: Pharmacophore Analysis and Rational Design” (ACS Med Chem Lett, 2012).

Assay [1] concerns the target Neuronal acetylcholine receptor; alpha4/beta4 (Homo sapiens) (UniProt P30926+P43681). Nature of the assay: Displacement of [3H]epibatidine from alpha4beta4 nAChR at 10 uM after 4 hrs by liquid scintillation counting analysis. The class given is protein-complex assay. In general terms: Loss of bound radioactivity is the signal in a displacement assay; it reports binding, not function.

Assay [2] deals with Neuronal acetylcholine receptor; alpha4/beta2 (Rattus norvegicus) (UniProt P09483+P12390). Nature of the assay: Displacement of [3H]epibatidine from alpha4beta2* nAChR in rat forebrain at 10 uM after 4 hrs by liquid scintillation counting analysis.
Assay [3] concerns the target Neuronal acetylcholine receptor; alpha4/beta2 (Homo sapiens) (UniProt P17787+P43681). Briefly: Displacement of [3H]epibatidine from alpha4beta2 nAChR at 10 uM after 4 hrs by liquid scintillation counting analysis. The class given is protein-complex assay.
Assay [4] has as its target Neuronal acetylcholine receptor; alpha3/beta4 (Homo sapiens) (UniProt P30926+P32297). Briefly: Displacement of [3H]epibatidine from alpha3beta4 nAChR at 10 uM after 4 hrs by liquid scintillation counting analysis. The class given is protein-complex assay.
Assay [5] has as its target Neuronal acetylcholine receptor; alpha3/beta2 (Homo sapiens) (UniProt P17787+P32297). Nature of the assay: Displacement of [3H]epibatidine from alpha3beta2 nAChR at 10 uM after 4 hrs by liquid scintillation counting analysis. It is filed as protein-complex assay.
Assay [6] deals with Neuronal acetylcholine receptor; alpha2/beta4 (Homo sapiens) (UniProt P30926+Q15822). Briefly: Displacement of [3H]epibatidine from alpha2beta4 nAChR at 10 uM after 4 hrs by liquid scintillation counting analysis. The class given is protein-complex assay.
The target in assay [7] is Neuronal acetylcholine receptor; alpha2/beta2 (Homo sapiens) (UniProt P17787+Q15822). Nature of the assay: Displacement of [3H]epibatidine from alpha2beta2 nAChR at 10 uM after 4 hrs by liquid scintillation counting analysis. The class given is protein-complex assay.
Assay [8] can be described thus: Selectivity ratio of Ki for human recombinant NET to Ki for sigma 1 receptor in rat brain membrane. The class given is cell membranes.
Assay [9] is described as follows: Selectivity ratio of Ki for human recombinant DAT to Ki for sigma 1 receptor in rat brain membrane. The class given is cell membranes.
Assay [10] addresses Sodium-dependent dopamine transporter (Homo sapiens, UniProt Q01959). Nature of the assay: Displacement of [3H]WIN35428 from human recombinant DAT after 1.5 hrs by microbeta scintillation counting analysis.
The next assay deals with Histamine H2 receptor (Homo sapiens, UniProt P25021). Briefly: Displacement of [3H]tiotidine from human recombinant histamine H2 receptor after 1.5 hrs by microbeta scintillation counting analysis.
Assay [11] has as its target T1, Histamine H1 receptor (Homo sapiens, UniProt P35367). Briefly: Displacement of [3H]pyrilamine from human recombinant histamine H1 receptor after 1.5 hrs by microbeta scintillation counting analysis.
For assay [12], the target named is Beta-2 adrenergic receptor (Homo sapiens, UniProt P07550). Nature of the assay: Displacement of [125I]Iodopindolol from beta 2 adrenergic receptor after 1.5 hrs by microbeta scintillation counting analysis.
The target of assay [13] is 5-hydroxytryptamine receptor 2B (Homo sapiens, UniProt P41595). Nature of the assay: Displacement of [3H]LSD from human recombinant 5-HT2B receptor after 1.5 hrs by microbeta scintillation counting analysis.
Assay [14] deals with T2, 5-hydroxytryptamine receptor 2A (Homo sapiens, UniProt P28223). Briefly: Displacement of [3H]ketanserin from human recombinant 5-HT2A receptor after 1.5 hrs by microbeta scintillation counting analysis.
Assay [15] addresses T1, Histamine H1 receptor. Nature of the assay: Displacement of [3H]pyrilamine from human recombinant histamine H1 receptor at 10 uM after 1.5 hrs by microbeta scintillation counting analysis.
The target in assay [16] is Muscarinic acetylcholine receptor M3 (Homo sapiens) (UniProt P20309). Briefly: Displacement of [3H]QNB from human recombinant muscarinic M3 receptor at 10 uM after 1.5 hrs by microbeta scintillation counting analysis.
Assay [17] concerns the target Beta-3 adrenergic receptor (Homo sapiens) (UniProt P13945). Nature of the assay: Displacement of [125I]Iodopindolol from beta 3 adrenergic receptor at 10 uM after 1.5 hrs by microbeta scintillation counting analysis.
Assay [18] deals with Beta-1 adrenergic receptor (Homo sapiens) (UniProt P08588). Briefly: Displacement of [125I]Iodopindolol from beta 1 adrenergic receptor at 10 uM after 1.5 hrs by microbeta scintillation counting analysis.
The target in assay [19] is Alpha-2C adrenergic receptor (Homo sapiens) (UniProt P18825). Briefly: Displacement of [3H]clonidine from alpha 2C adrenergic receptor at 10 uM after 40 mins by microbeta scintillation counting analysis.
Assay [20] deals with Alpha-1B adrenergic receptor (Homo sapiens) (UniProt P35368). Briefly: Displacement of [3H]prazosin from alpha 1B adrenergic receptor at 10 uM after 1 hr by microbeta scintillation counting analysis.
Assay [21] has as its target Sodium-dependent serotonin transporter (Homo sapiens) (UniProt P31645). Nature of the assay: Displacement of [3H]citalopram from human recombinant SERT at 10 uM after 1.5 hrs by microbeta scintillation counting analysis.
In assay [22] the target is D(4) dopamine receptor (Homo sapiens) (UniProt P21917). Nature of the assay: Displacement of [3H]N-methylspiperone from D4 receptor at 10 uM after 1.5 hrs by microbeta scintillation counting analysis.
Assay [23] has as its target T2, 5-hydroxytryptamine receptor 2A. Briefly: Displacement of [3H]ketanserin from human recombinant 5-HT2A receptor at 10 uM after 1.5 hrs by microbeta scintillation counting analysis.
The target in assay [24] is 5-hydroxytryptamine receptor 1E (Homo sapiens) (UniProt P28566). Briefly: Displacement of [3H]5-HT from human recombinant 5-HT1E receptor at 10 uM after 1.5 hrs by microbeta scintillation counting analysis.
The target of assay [25] is 5-hydroxytryptamine receptor 1D (Homo sapiens) (UniProt P28221). Briefly: Displacement of [3H]GR125743 from human recombinant 5-HT1D receptor at 10 uM after 1.5 hrs by microbeta scintillation counting analysis.
In assay [26] the target is Sigma non-opioid intracellular receptor 1 (Rattus norvegicus, UniProt Q9R0C9). Briefly: Displacement of [3H]pentazocine from sigma 1 receptor in rat brain membrane after 2.5 hrs by microbeta scintillation counting analysis. The class given is cell membranes.
Assay [27] deals with 5-hydroxytryptamine receptor 6 (Homo sapiens, UniProt P50406). Nature of the assay: Displacement of [3H]LSD from human recombinant 5-HT6 receptor after 1.5 hrs by microbeta scintillation counting analysis.

T2 sequence (P28223 whole entry): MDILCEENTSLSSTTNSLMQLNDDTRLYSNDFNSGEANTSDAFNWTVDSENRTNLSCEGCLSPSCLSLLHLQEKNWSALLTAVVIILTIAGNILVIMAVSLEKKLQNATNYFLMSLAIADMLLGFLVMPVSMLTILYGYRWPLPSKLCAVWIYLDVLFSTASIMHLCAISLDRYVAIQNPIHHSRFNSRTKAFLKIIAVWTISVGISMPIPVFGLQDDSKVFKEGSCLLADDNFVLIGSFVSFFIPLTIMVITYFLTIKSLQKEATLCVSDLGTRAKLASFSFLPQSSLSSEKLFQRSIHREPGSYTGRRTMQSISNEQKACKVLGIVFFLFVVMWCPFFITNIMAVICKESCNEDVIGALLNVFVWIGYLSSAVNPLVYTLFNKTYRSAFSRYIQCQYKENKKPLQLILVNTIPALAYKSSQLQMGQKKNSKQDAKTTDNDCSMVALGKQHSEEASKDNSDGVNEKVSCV
T1 sequence (P35367 whole entry): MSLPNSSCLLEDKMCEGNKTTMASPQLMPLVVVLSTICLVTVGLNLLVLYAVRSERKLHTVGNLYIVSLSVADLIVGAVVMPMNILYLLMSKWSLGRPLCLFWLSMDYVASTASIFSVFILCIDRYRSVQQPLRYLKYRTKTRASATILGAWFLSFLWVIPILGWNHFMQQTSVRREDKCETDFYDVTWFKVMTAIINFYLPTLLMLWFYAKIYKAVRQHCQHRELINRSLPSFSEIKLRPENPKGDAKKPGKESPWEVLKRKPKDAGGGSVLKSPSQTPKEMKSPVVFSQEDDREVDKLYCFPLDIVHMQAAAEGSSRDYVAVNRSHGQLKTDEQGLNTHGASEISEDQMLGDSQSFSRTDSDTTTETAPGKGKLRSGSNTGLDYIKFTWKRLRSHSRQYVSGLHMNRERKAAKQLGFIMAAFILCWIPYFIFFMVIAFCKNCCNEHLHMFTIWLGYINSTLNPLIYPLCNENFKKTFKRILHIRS
Sequence of Beta-3 adrenergic receptor (Homo sapiens) (P13945 whole entry, looked up): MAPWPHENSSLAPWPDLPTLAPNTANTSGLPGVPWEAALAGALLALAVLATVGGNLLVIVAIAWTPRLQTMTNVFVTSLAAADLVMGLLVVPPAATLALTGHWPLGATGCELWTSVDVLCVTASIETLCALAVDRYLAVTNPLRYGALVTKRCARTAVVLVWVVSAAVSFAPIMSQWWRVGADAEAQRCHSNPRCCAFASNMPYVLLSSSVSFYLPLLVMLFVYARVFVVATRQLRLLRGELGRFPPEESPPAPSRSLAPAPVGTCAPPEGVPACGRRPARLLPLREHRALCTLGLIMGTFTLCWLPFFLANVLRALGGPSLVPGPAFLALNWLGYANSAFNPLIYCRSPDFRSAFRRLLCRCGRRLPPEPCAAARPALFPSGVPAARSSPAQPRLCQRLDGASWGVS
Sequence of Alpha-1B adrenergic receptor (Homo sapiens) (P35368 whole entry): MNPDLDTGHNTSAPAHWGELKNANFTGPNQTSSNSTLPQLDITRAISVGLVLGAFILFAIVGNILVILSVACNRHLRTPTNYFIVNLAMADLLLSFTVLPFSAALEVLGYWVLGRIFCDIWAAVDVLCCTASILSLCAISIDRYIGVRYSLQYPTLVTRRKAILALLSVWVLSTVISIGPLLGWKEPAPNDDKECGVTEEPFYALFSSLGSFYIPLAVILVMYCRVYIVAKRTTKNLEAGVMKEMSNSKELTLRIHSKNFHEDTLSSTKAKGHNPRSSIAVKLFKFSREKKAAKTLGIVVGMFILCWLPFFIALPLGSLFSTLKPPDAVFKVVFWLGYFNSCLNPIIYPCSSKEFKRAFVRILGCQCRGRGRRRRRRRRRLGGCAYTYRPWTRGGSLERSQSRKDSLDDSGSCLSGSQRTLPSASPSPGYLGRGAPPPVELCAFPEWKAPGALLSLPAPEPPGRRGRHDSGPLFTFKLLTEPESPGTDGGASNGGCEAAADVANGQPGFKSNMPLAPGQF
Sequence of D(4) dopamine receptor (Homo sapiens) (P21917 whole entry): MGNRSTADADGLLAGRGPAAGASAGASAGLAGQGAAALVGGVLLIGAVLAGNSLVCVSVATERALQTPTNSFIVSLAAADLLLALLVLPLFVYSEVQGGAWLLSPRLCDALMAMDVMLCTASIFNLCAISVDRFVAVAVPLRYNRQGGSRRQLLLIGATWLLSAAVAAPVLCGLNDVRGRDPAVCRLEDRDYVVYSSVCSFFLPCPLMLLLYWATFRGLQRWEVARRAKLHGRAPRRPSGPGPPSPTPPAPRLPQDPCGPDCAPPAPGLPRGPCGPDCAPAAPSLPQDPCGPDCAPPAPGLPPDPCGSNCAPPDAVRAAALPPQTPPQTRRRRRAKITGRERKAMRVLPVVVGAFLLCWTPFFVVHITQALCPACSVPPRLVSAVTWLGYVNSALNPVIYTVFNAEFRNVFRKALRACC
Sequence of Sigma non-opioid intracellular receptor 1 (Q9R0C9 whole entry): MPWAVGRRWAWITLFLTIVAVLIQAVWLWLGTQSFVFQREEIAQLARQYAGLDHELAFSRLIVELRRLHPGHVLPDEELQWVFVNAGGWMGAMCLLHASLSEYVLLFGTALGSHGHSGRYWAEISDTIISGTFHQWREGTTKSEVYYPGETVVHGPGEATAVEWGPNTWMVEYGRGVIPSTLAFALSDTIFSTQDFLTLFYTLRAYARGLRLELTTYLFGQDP
Sequence of Muscarinic acetylcholine receptor M3 (Homo sapiens) (P20309 whole entry, looked up): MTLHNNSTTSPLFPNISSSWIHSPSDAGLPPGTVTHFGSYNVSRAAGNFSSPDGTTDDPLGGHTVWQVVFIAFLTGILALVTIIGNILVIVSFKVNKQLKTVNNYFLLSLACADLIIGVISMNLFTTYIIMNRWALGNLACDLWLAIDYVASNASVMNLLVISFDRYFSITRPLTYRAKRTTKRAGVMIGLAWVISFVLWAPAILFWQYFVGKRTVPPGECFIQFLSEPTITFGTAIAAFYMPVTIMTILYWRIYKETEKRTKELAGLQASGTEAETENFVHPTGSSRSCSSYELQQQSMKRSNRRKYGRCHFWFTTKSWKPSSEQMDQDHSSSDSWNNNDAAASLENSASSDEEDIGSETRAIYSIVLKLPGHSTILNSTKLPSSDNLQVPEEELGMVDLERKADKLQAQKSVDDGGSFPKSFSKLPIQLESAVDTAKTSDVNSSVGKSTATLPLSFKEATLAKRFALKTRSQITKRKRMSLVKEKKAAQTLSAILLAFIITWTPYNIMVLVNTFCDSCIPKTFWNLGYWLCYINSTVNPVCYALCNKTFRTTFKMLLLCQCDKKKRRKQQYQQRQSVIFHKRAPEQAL
Sequence of Alpha-2C adrenergic receptor (Homo sapiens) (P18825 whole entry): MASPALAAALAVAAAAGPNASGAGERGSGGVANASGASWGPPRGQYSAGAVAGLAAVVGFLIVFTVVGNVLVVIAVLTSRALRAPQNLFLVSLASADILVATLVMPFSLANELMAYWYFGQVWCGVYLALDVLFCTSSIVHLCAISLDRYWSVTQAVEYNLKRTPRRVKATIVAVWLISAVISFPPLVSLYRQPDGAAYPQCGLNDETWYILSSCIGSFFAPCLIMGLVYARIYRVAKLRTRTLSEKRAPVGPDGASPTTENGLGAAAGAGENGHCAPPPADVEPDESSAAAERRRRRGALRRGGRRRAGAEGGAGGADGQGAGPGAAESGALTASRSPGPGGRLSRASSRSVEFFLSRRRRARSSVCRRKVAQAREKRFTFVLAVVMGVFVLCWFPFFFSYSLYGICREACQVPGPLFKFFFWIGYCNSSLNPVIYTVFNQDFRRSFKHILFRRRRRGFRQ
Sequence of 5-hydroxytryptamine receptor 1E (Homo sapiens) (P28566 whole entry): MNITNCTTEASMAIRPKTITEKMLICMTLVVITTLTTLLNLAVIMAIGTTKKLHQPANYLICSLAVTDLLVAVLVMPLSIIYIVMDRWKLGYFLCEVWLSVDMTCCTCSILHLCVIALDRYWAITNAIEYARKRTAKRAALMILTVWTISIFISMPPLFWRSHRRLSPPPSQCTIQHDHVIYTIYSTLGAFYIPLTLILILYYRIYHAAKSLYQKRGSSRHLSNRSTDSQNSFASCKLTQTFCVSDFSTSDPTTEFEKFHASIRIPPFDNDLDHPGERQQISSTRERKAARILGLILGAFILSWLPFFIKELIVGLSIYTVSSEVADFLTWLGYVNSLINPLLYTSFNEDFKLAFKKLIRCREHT
Sequence of Beta-1 adrenergic receptor (Homo sapiens) (P08588 whole entry, looked up): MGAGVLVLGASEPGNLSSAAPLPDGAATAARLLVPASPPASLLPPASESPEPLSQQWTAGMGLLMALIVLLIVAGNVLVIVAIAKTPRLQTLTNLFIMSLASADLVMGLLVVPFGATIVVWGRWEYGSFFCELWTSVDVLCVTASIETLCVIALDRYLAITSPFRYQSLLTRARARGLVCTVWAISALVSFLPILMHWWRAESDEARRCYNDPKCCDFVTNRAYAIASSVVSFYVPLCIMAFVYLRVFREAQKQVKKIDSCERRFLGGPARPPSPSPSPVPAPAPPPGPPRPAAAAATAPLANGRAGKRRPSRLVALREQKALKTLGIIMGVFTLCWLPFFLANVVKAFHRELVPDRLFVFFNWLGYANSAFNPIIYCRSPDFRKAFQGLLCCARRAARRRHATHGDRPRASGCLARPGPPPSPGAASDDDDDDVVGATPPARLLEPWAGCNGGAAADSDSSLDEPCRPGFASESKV
Sequence of 5-hydroxytryptamine receptor 1D (Homo sapiens) (P28221 whole entry): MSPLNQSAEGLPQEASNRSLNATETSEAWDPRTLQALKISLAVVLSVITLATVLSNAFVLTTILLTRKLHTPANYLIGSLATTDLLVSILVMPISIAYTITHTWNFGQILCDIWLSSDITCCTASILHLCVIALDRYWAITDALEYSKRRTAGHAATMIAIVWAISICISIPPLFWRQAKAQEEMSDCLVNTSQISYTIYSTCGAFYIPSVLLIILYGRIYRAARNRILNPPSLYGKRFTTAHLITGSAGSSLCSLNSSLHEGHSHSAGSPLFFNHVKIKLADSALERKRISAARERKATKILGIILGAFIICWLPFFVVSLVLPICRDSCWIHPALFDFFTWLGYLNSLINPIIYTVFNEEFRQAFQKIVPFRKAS

As for `c1ccc(OCc2cc(OC[C@@H]3CCCN3)no2)cc1`, the Activity in assay [1], in assay [2], in assay [3], in assay [4], in assay [5] and in assay [6] was less than 50% in each case. Moreover, in [7], the Activity was less than 50%. Moreover, the Ratio Ki in assay [8] was 50; in assay [9], 90. For the same compound, the Ki in [10] is 373 nM; at Histamine H2 receptor, 5.16 µM; at Histamine H1 receptor [11] it was greater than 10 µM; in assay [12] it was greater than 10 µM; in assay [13], 5.1 µM; in assay [14] it was 4.41 µM. Further, the affinity in assay [26] corresponds to a Ki of 4.1 nM. Also, the Efficacy at Histamine H1 receptor [15] is 55%; in assay [16], 12.2%; in [17] it was 7.2%; in assay [18], -1.2%; in assay [19], 39.3%; in assay [20] it was 27.8%. Moreover, the Efficacy was 3.4% in assay [21]; 32% in assay [22]; 68% in assay [23]; -4.7% in assay [24]; 15.7% in assay [25].

Regarding `c1ccc(OCc2cc(OC[C@@H]3CCN3)no2)cc1`, the Ki in assay [10] is 24 nM; in assay [27], greater than 10 µM; in assay [14], 6.4 µM; in [26] it was 33 nM. For the same compound, the Efficacy at Histamine H1 receptor [15] was 49.2%; in assay [16] it was 47.6%; in assay [17] it was -1.5%; in [18] it was 22.1%; in assay [19] it was 43.8%; in assay [20], 18.1%. Besides, the Efficacy in assay [21] is 8.8%; in assay [22], 30%; in [23] it was 77.9%; in assay [24], 5.9%; in [25], 14%.
